One test deals with Pyricularia oryzae. In kind it is in vivo. The conditions noted are these: rice, sprayed, disease infestation 4 days after inoculation.
The next test has as its system Chaetomium globosum. The experiment in a line: MIC on fungi in agar. The settings on record: 336 h.
The next test has as its system Lentinus tigrinus. Nature of the test: MIC on fungi in agar. The settings on record: 336 h.
The test system of another test is Polyporus versicolor. The experiment in a line: MIC on fungi in agar. The conditions noted are these: Trametes versicolor, 336 h.
The next test deals with Coniophora puteana. Nature of the test: MIC on fungi in agar. The settings on record: 336 h.
A further test concerns Aspergillus niger. The experiment in a line: MIC on fungi in agar. The settings on record: 336 h.
The test system of another test is Aureobasidium pullulans. Nature of the test: MIC on fungi in agar. The conditions noted are these: 336 h.
The next test relates to Sclerophoma pityophila. The experiment in a line: MIC on fungi in agar. The settings on record: Sydowia polyspora, 336 h.
A further test relates to Penicillium glaucum. Nature of the test: MIC on fungi in agar. The conditions noted are these: 336 h.
The next test deals with Alternaria tenuis. The experiment in a line: MIC on fungi in agar. The settings on record: Alternaria alternata, 336 h.
For a further test, the system named is Trichoderma viride. Nature of the test: MIC on fungi in agar. The conditions noted are these: 336 h.
In a further test the test system is Botrytis cinerea. The experiment in a line: Botrytis test (BEAN)/protective. The settings on record: sprayed, infected spots on leaves evaluated 3 days after inoculation. Type of test: in vivo. On the procedure:
Botrytis test (BEAN)/protective Solvent: 4.7 parts by weight of acetone Emulsifier: 0.3 parts by weight alkyl aryl polyglycol ether To produce a suitable preparation of active compound, 1 pat by weight of active compound is mixed with the stated amounts of solvent and emulsifier, and the concentrate is diluted with water to the desired concentration. To test for protective activity, young plants are sprayed with the preparation of active compound until dripping wet. After the spray coating has dried on, 2 small pieces of agar covered with Botrytis cinerea are placed on each leaf. The inoculated plants are placed in a darkened humidity chamber at 20° C. 3 days after the inoculation, the size of the infected spots on the leaves is evaluated.

Each structure is given as a SMILES string. Values after ≈ are worked out from the molar mass of the structure shown.

Description for Alternaria tenuis: (§1) After storage for 2 weeks at 28° C. and 60 to 70% relative atmospheric humidity, the MIC is determined.
Description for Aspergillus niger: as §1
Description for Aureobasidium pullulans: as §1
Description for Chaetomium globosum: as §1
Description for Coniophora puteana: as §1
Description for Lentinus tigrinus: as §1
Description for Penicillium glaucum: as §1
Description for Polyporus versicolor: as §1
Description for Sclerophoma pityophila: as §1
Description for Trichoderma viride: as §1

As to `O=c1c(-c2ccccc2Cl)c[nH]n1-c1ccccn1` [Example 7], in the test on Pyricularia oryzae, the protective activity entry was “clearly superior activity compared with the prior art”.
As to `O=c1c(-c2ccc(C(F)(F)F)cc2)c[nH]n1-c1ccccn1` [Example 25], the protective activity entry with Pyricularia oryzae is given as “clearly superior activity compared with the prior art”.
For `Cc1ccc(-c2c[nH]n(-c3cc(C)c4ccccc4n3)c2=O)cc1` [Example 68], the protective activity entry in the test with Pyricularia oryzae is given as “clearly superior activity compared with the prior art”.
Still for that read-out and setting: with `Cc1cc(-n2[nH]cc(-c3ccc(C(F)(F)F)cc3)c2=O)cc(C)n1` [Example 80] the entry was “clearly superior activity compared with the prior art”.
Usually MIC stands for the least concentration at which growth counts as inhibited. In the case of `O=c1c(-c2ccccc2)c[nH]n1-c1ncccn1` [Example 81, 1-pyrimid-2-yl-4-phenyl-pyrazolin-5-one], the MIC against Chaetomium globosum is 3.5 µg/mL (≈ 14.7 µM); against Lentinus tigrinus it was 5 µg/mL (≈ 21 µM); with Polyporus versicolor, 2 µg/mL (≈ 8.39 µM); with Coniophora puteana it was 0.5 µg/mL (≈ 2.1 µM); in the test with Aspergillus niger, 10 µg/mL (≈ 42 µM); against Aureobasidium pullulans, 50 µg/mL (≈ 210 µM). Also, the MIC in the test with Sclerophoma pityophila is 7.5 µg/mL (≈ 31.5 µM); in the test with Penicillium glaucum, 50 µg/mL (≈ 210 µM); with Alternaria tenuis, 75 µg/mL (≈ 315 µM); in the test on Trichoderma viride, 75 µg/mL (≈ 315 µM).
With `O=c1c(-c2ccc(Cl)cc2)c[nH]n1-c1ncccn1` [Example 85, 1-pyrimid-2-yl-4-(4-chlorophenyl)-pyrazolin-5-one], the MIC in the test with Chaetomium globosum amounted to 1 µg/mL (≈ 3.67 µM); in the test with Lentinus tigrinus, 7.5 µg/mL (≈ 27.5 µM); against Polyporus versicolor, 5 µg/mL (≈ 18.3 µM); against Coniophora puteana it was 3.5 µg/mL (≈ 12.8 µM); against Aspergillus niger it was 5 µg/mL (≈ 18.3 µM); against Aureobasidium pullulans, 50 µg/mL (≈ 183 µM). For the same compound, the MIC worked out at 20 µg/mL (≈ 73.3 µM) against Sclerophoma pityophila, 10 µg/mL (≈ 36.7 µM) in the test with Penicillium glaucum, 50 µg/mL (≈ 183 µM) against Alternaria tenuis and 100 µg/mL (≈ 367 µM) with Trichoderma viride.
For `O=c1c(-c2ccccc2Br)c[nH]n1-c1ncccn1` [Example 86], the MIC against Chaetomium globosum is 1 µg/mL (≈ 3.15 µM); against Lentinus tigrinus it was 2 µg/mL (≈ 6.31 µM); against Polyporus versicolor, 2 µg/mL (≈ 6.31 µM); against Coniophora puteana it was 5 µg/mL (≈ 15.8 µM); in the test on Aspergillus niger, 10 µg/mL (≈ 31.5 µM); in the test with Aureobasidium pullulans, 20 µg/mL (≈ 63.1 µM). The minimal inhibitory concentration (MIC) stood at 10 µg/mL (≈ 31.5 µM) against Sclerophoma pityophila, 50 µg/mL (≈ 158 µM) in the test on Penicillium glaucum, 20 µg/mL (≈ 63.1 µM) in the test with Alternaria tenuis and 35 µg/mL (≈ 110 µM) in the test with Trichoderma viride.
Regarding `O=c1c(-c2c(F)cccc2Cl)c[nH]n1-c1ncccn1` [Example 87], in the test with Botrytis cinerea, the protective activity result is recorded as “clearly superior activity compared with the prior art”.
The same measure, in the same setting: the value for `O=c1c(-c2ccc(Cl)cc2Cl)c[nH]n1-c1ncccn1` [Example 88] was “clearly superior activity compared with the prior art”; that for `O=c1c(-c2ccc(Cl)c(Cl)c2)c[nH]n1-c1ncccn1` [Example 89] was “clearly superior activity compared with the prior art”.
As for `COc1ccccc1-c1c[nH]n(-c2ncccn2)c1=O` [Example 90], the MIC against Chaetomium globosum was 15 µg/mL (≈ 55.9 µM); against Lentinus tigrinus it was 100 µg/mL (≈ 373 µM); against Polyporus versicolor it was 10 µg/mL (≈ 37.3 µM); against Coniophora puteana, 5 µg/mL (≈ 18.6 µM); with Aspergillus niger, 35 µg/mL (≈ 130 µM); against Aureobasidium pullulans, 75 µg/mL (≈ 280 µM). Also, the MIC came to 15 µg/mL (≈ 55.9 µM) with Sclerophoma pityophila, 35 µg/mL (≈ 130 µM) against Penicillium glaucum, 75 µg/mL (≈ 280 µM) against Alternaria tenuis and 150 µg/mL (≈ 559 µM) in the test on Trichoderma viride.
Regarding `COc1ccc(-c2c[nH]n(-c3ncccn3)c2=O)cc1` [Example 91], the MIC in the test with Chaetomium globosum is 20 µg/mL (≈ 74.6 µM); with Lentinus tigrinus, 100 µg/mL (≈ 373 µM); with Polyporus versicolor it was 20 µg/mL (≈ 74.6 µM); in the test on Coniophora puteana, 5 µg/mL (≈ 18.6 µM); with Aspergillus niger, 50 µg/mL (≈ 186 µM); in the test on Aureobasidium pullulans, 150 µg/mL (≈ 559 µM). Also, the MIC stood at 15 µg/mL (≈ 55.9 µM) in the test on Sclerophoma pityophila, 10 µg/mL (≈ 37.3 µM) in the test with Penicillium glaucum, 100 µg/mL (≈ 373 µM) in the test with Alternaria tenuis and 200 µg/mL (≈ 746 µM) against Trichoderma viride.
As to `Cc1ccccc1-c1c[nH]n(-c2ncccn2)c1=O` [Example 96], the protective activity result in the test with Botrytis cinerea is recorded as “clearly superior activity compared with the prior art”.
Turning to `O=c1c(-c2cc(C(F)(F)F)cc(C(F)(F)F)c2)c[nH]n1-c1ncccn1` [Example 104], the protective activity entry with Pyricularia oryzae was “clearly superior activity compared with the prior art”.
In the case of `Cc1ccccc1-c1c[nH]n(-c2ncc(Cl)cn2)c1=O` [Example 111], the protective activity entry in the test on Botrytis cinerea is recorded as “clearly superior activity compared with the prior art”.

The values above are taken from patent publication US4663327A, “1-heteroaryl-4-aryl-pyrazolin-5-ones” (priority 1984, dated 1987).
